Source: ChEMBL document CHEMBL4425097, “Adrenomedullin 2.0: Adjusting Key Levers for Metabolic Stability” (J Med Chem, 2016)
Calls of active or inactive are those of the source. The rule behind the calls is not given here. Where a SMILES comes first, the peptide text is derived from it. Bridges are numbered along the chain shown (N, C = ends).

Target: Adrenomedullin receptor AM1; CALCRL/RAMP2 (Homo sapiens) (UniProt O60895+Q16602)
Test: Agonist activity at eYFP-tagged CLR/eCFP-tagged RAMP2-derived AM1 receptor (unknown origin) expressed in HEK293 cells assessed as cAMP accumulation after 3 hrs by ONE-Glo substrate-based luminescence assay
Type: functional, cell-based

Activity	Compound
inactive	CC[C@H](C)[C@H](NC(=O)[C@H](CCC(N)=O)NC(=O)[C@H](Cc1cnc[nH]1)NC(=O)[C@H](C)NC(=O)[C@H](CC(C)C)NC(=O)[C@H](CCCCN)NC(=O)[C@H](CCC(N)=O)NC(=O)[C@@H](NC(=O)[C@@H](N)[C@@H](C)O)C(C)C)C(=O)N[C@@H](Cc1ccc(O)cc1)C(=O)N[C@@H](CCC(N)=O)C(=O)N[C@@H](Cc1ccccc1)C(=O)N[C@H](C(=O)N[C@@H](CC(=O)O)C(=O)N[C@@H](CCCCN)C(=O)N[C@@H](CC(=O)O)C(=O)N[C@@H](CCCCN)C(=O)N[C@@H](CC(=O)O)C(=O)N[C@@H](CC(N)=O)C(=O)N[C@H](C(=O)N[C@@H](C)C(=O)N1CCC[C@H]1C(=O)N[C@@H](CCCNC(=N)N)C(=O)N[C@@H](CO)C(=O)N[C@@H](CCCCN)C(=O)N[C@H](C(=O)N[C@@H](CO)C(=O)N1CCC[C@H]1C(=O)N[C@@H](CCC(N)=O)C(=O)NCC(=O)N[C@@H](Cc1ccc(O)cc1)C(N)=O)[C@@H](C)CC)C(C)C)[C@@H](C)O
inactive	C[C@@H](O)[C@@H]1NC(=O)CNC(=O)[C@H](Cc2ccccc2)NC(=O)[C@H](CCCNC(=N)N)NC(=O)[C@@H](NC(=O)CNC(=O)CN)CSSC[C@@H](C(=O)O)NC1=O (H-GGCRFGTC-OH; disulfide 3-8)
inactive	CC[C@H](C)[C@H](NC(=O)[C@H](CCC(N)=O)NC(=O)[C@H](Cc1cnc[nH]1)NC(=O)[C@H](C)NC(=O)[C@H](CC(C)C)NC(=O)[C@H](CCCCN)NC(=O)[C@H](CCC(N)=O)NC(=O)[C@@H](NC(=O)[C@@H](NC(=O)[C@@H]1CSSC[C@H](NC(=O)CNC(=O)CN)C(=O)N[C@@H](CCCNC(=N)N)C(=O)N[C@@H](Cc2ccccc2)C(=O)NCC(=O)N[C@@H]([C@@H](C)O)C(=O)N1)[C@@H](C)O)C(C)C)C(=O)N[C@@H](Cc1ccc(O)cc1)C(=O)N[C@@H](CCC(N)=O)C(=O)N[C@@H](Cc1ccccc1)C(=O)N[C@H](C(=O)N[C@@H](CC(=O)O)C(=O)N[C@@H](CCCCN)C(=O)N[C@@H](CC(=O)O)C(=O)N[C@@H](CCCCN)C(=O)N[C@@H](CC(=O)O)C(=O)N[C@@H](CC(N)=O)C(=O)N[C@H](C(=O)N[C@@H](C)C(=O)N1CCC[C@H]1C(=O)N[C@@H](CCCNC(=N)N)C(=O)O)C(C)C)[C@@H](C)O (H-GGCRFGTCTVQKLAHQIYQFTDKDKDNVAPR-OH; disulfide 3-8)
inactive	CC[C@H](C)[C@H](NC(=O)[C@H](CCC(N)=O)NC(=O)[C@H](Cc1cnc[nH]1)NC(=O)[C@H](C)NC(=O)[C@H](CC(C)C)NC(=O)[C@H](CCCCN)NC(=O)[C@H](CCC(N)=O)NC(=O)[C@@H](NC(=O)[C@@H](NC(=O)[C@@H]1CSSC[C@H](NC(=O)CNC(=O)CN)C(=O)N[C@@H](CCCNC(=N)N)C(=O)N[C@@H](Cc2ccccc2)C(=O)NCC(=O)N[C@@H]([C@@H](C)O)C(=O)N1)[C@@H](C)O)C(C)C)C(=O)N[C@@H](Cc1ccc(O)cc1)C(=O)N[C@@H](CCC(N)=O)C(=O)N[C@@H](Cc1ccccc1)C(=O)N[C@H](C(=O)N[C@@H](CC(=O)O)C(=O)N[C@@H](CCCCN)C(=O)N[C@@H](CC(=O)O)C(=O)N[C@@H](CCCCN)C(=O)N[C@@H](CC(=O)O)C(=O)N[C@@H](CC(N)=O)C(=O)N[C@H](C(=O)N[C@@H](C)C(=O)N1CCC[C@H]1C(=O)N[C@@H](CCCNC(=N)N)C(=O)N[C@@H](CO)C(=O)O)C(C)C)[C@@H](C)O (H-GGCRFGTCTVQKLAHQIYQFTDKDKDNVAPRS-OH; disulfide 3-8)
